Laboratory results published in patent US20210308120A1, “Use of Amitriptyline for Blocking Brain Hemichannels and Method for Potentiating its Effect in Vivo” (THERANEXUS, priority 2015, published 2021).
“Also recorded” adds a separate entry of the source. Blank lines part the entries; values can stand above or below the compound they belong to.

What was measured:
[1] = tested on: SN-CCI rats (neuropathic pain, hyperalgesia); assay: Randall & Selitto test in SN-CCI rats, chronic 14-day administration; assay type: in vivo, rat; settings: 14 days; for Potentiation of amitriptyline anti-hyperalgesic effect: combined with amitriptyline 12 mg/kg, mefloquine or MFA 0.5 mg/kg i.p. twice a day
From the text: Data are the means±S.E.M. of n=8-14 rats.
Data are the means±S.E.M. of n=8-14 rats. *p<0.05, **p<0.01, ***p<0.001 as compared with “saline+saline” group at the same time, ≠p<0.05 as compared between amitriptyline groups, two-way ANOVA, Bonferroni test.
(§1) One week after their arrival, rats were anesthetized with sodium pentobarbital before exposing the common sciatic nerve. As described in Bennett's article, four chromic catgut (5-0) ligations were tied loosely proximally to the sciatic trifurcation (Bennett and Xie, 1988).
(§2) All behavioral assessments were conducted between 9 a.m. and 5 p.m. in a quiet room. An increasing pressure was applied to the right hind paw of SN-CCI (Sciatic Nerve-Chronic Constriction Injury) rat to evaluate hyperalgesia-like behavior (Viguier and al, 2013). Values correspond to the pressure threshold producing the paw withdrawal and then the vocalization of the rat.
Osmotic mini-pumps (Alzet, model 2ML2), delivering for the following 14 days amitriptyline or vehicle were subcutaneously implanted.
a) Rats were ligated on sciatic nerve and then tested with the Randall & Selitto test 14 days after surgery, to evaluate hyperalgesia quantified as pressure threshold. Neuropathic rats, characterized by a decrease of pressure threshold after surgery, were then treated during 14 days and tested by the Randall & Selitto test during this period.

[2] = tested on: SN-CCI rats (neuropathic pain, hyperalgesia); assay: Randall & Selitto test in SN-CCI rats, repeated administration every 150 minutes; assay type: in vivo, rat; settings: mefloquine 1 mg/kg with amitriptyline i.p. every 150 min; at 90 and 240 min
Experimental: as §1, §2

Cx43 hemichannels = biological target: T1, Cx43 hemichannels (Mus musculus, UniProt P23242); assay: Hemichannel activity by ethidium bromide uptake in LPS-treated mouse cortical astrocyte cultures; assay type: cell-based; settings: 24 hours; for HC activity (ethidium bromide uptake) after LPS-induced opening: LPS 1 μg/mL and mefloquine or MFA 10 μM; for Degree of Cx43 hemichannel inhibition, MFA compared with mefloquine: both 10 μM, LPS 1 μg/mL
T1 construct: Astrocyte cultures were prepared from cortex of rats and mice as previously described; endogenous in cells; host or cells: secondary cultures of mouse cortical astrocytes, LPS-treated
T1 sequence (P23242 whole entry): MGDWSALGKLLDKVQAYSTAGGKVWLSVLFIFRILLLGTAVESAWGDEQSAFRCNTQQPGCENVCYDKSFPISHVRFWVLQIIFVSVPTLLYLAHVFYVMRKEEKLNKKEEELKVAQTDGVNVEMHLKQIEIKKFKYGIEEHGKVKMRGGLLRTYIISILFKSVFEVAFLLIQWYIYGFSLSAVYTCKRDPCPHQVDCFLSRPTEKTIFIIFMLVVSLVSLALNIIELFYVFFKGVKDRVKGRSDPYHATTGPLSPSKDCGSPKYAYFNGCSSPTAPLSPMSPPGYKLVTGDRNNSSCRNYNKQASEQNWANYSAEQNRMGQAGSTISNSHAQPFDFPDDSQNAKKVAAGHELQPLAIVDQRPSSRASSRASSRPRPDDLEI
Experimental: Astrocyte cultures were prepared from cortex of rats and mice as previously described (Meme et al., 2006). Cells were seeded on polyornithine coated 35 mm dishes (5×10^5 cells/dish) or into 100-mm diameter plastic dishes at the density of 3×10^6 cells/dish. After 8-10 days, when cells grown into 35 mm in diameter plastic culture dishes have reached confluence, 1 μM of cytosine-arabinoside was added to the culture medium. In addition, when cells grown into 100 mm plastic culture dishes reached confluence, they were harvested with trypsin-EDTA. Then, cells were re-plated (2×10^5 cells per well), as secondary cultures, on glass coverslips placed inside 24-round-well plate. Finally, they were grown to confluence and cytosine-arabinoside was added. Medium was changed twice a week for all cells until the experiments were carried out. Hemichannel activity was evaluated in secondary cultures of cortical astrocytes by Ethidium Bromide (EtBr) uptake as already published (Orellana et al, 2011). 24 h before experiment, cells were pretreated or not with 1 μg/ml LPS known to open Cx43 HeC. The day of experiment, cells were first preincubated in HEPES buffer solution. Then, cells were exposed to 5 μM EtBr for 10 min at room temperature. Cells were then washed with the same buffer before fixation with 4% paraformaldehyde in PBS. Fixed cells were examined at 40× with a confocal laser-scanning microscope. Stacks of 10 consecutive confocal images taken at 0.49 μm intervals were acquired. For each experimental condition, 6 images were captured and then analyzed with Image J program (NIH software). LPS was added to mouse cortical astrocytic cultures during 24 hours to open Cx43 hemichannels and amitriptyline was also added during the same time to evaluate its action on hemichannel activity, quantified by cell uptake of ethidium bromide.

mice subjected to FST = assay: Forced Swim Test (FST); assay type: in vivo, mouse; settings: amitriptyline 12 mg/kg + mefloquine 1 mg/kg per os; 2nd 3-min period
Experimental: The FST is the most used rodent model for screening antidepressants (Porsolt et al, 1977). Mice were dropped individually in a glass cylinder (25 cm high, 9 cm diameter) filled with 10 cm 25° C. water. The experiment was recorded with a camcorder, placed in front of the glass cylinders. Video were scored at a later time by an experimenter blind to the treatments. The indices of depression-related behavior are the immobility time, the swimming time and the climbing time.
FST test evaluates the despair behavior which is commonly reversed by antidepressants. During FST, the swimming time of each mouse was measured on each 1-min period, on 1st and 2nd 3-min periods.

[3] = Pharmacokinetics of amitriptyline/mefloquine in plasma and brain of mice (LC-MS); assay type: in vivo, mouse
Experimental: Data are presented as mean±SEM.
Adult male C57BL/6J mice (Charles River, L'Arbresle, France) were used. Mice were kept in collective cages for habituation to the facility for one week before experimental testing with food and water ad libitum. Mice were maintained on a light/dark cycle of 12 hours with light onset at 8h00 and with a controlled temperature of 21° C.±1° C.
Injections were done twice.
On day 18th of treatment, mice received the morning injection and samplings were done 2 hours after the injection. Mice were anesthetized just before sampling (ketamine 68 mg/kg, xylazine 10 mg/kg) and blood was collected by intracardiac puncture (Vacuette tubes, with lithium/heparin gel). The mouse was then decapitated, and the brain extracted and fast frozen in dry ice.
Vacuette tubes with blood were centrifugated (3000 rpm, 20 min), plasma recovered and stored at −80° C. until shipping in dry ice.

[4] = tested on: neuropathic mice (cuff model, allodynia); assay: Mechanical allodynia, von Frey test in sciatic nerve cuff model; assay type: in vivo, mouse; settings: for Synergy with amitriptyline in vivo: combined with amitriptyline (FIGS. 7 and 11), 0.5 mg/kg
Experimental: Paw withdrawal thresholds of mice treated with either amitriptyline 6 mg/kg alone (AMIT 6) or amitriptyline 12 mg/kg alone (AMIT 12) are also shown (D). FIG. 10 (E) represents area under curve analysis.
Area under curve analysis are shown (B).
Neuropathic pain was induced to adult male C57BL/6J mice (Charles River, L'Arbresle, France) by cuffing the main branch of the right sciatic nerve (For detailed description and video illustration: Yalcin et al. 2014, J Vis Exp 89:e51608). Surgeries were performed under ketamine (68 mg/kg)/xylazine (10 mg/kg) intraperitoneal (i.p.) anesthesia (Centravet, Tadden, France). The common branch of the right sciatic nerve was exposed and a cuff of PE-20 polyethylene tubing (Harvard Apparatus, Les Ulis, France) of standardized length (2 mm) was unilaterally inserted around it (Cuff group). The shaved skin was closed using suture.
Injections were done once a day during the 17 first days of treatment, in the afternoon. As a single dose per day was ineffective, treatment was then done twice a day, morning and afternoon, from the 8 last days of treatment.
Mechanical allodynia was tested using von Frey hairs and results were expressed in grams (For detailed description and video illustration: Yalcin et al. 2014, J Vis Exp 89:e51608). Tests were done during the morning, starting at least 2 hours after lights on. Mice were placed in clear Plexiglas boxes (7 cm×9 cm×7 cm) on an elevated mesh screen. Calibrated von Frey filaments (Bioseb, Vitrolles, France) were applied to the plantar surface of each hindpaw until they just bent, in a series of ascending forces up to the mechanical threshold. Filaments were tested five times per paw and the paw withdrawal threshold was defined as the lower of two consecutive filaments for which three or more withdrawals out of the five trials were observed.
Mice were subjected to sciatic nerve cuffing and then tested with the von Frey test to evaluate allodynia quantified as pressure threshold.
Mice were subjected to sciatic nerve cuffing and then tested with the von Frey test to evaluate allodynia quantified as pressure threshold. Neuropathic mice, characterized by a decrease of pressure threshold after surgery, were then treated during 25 days and tested by the von Frey test during this period.

[5] = cited from earlier work
[6] = amitriptyline 12 mg/kg s.c. osmotic pump, mefloquine 0.5 mg/kg i.p. twice a day, vs saline

HC activity (ethidium bromide uptake) after LPS-induced opening (Cx43 hemichannels): reversed this effect
Degree of Cx43 hemichannel inhibition, MFA compared with mefloquine (Cx43 hemichannels): less efficient
Concentrations in blood and brain tissue ([3]; amitriptyline 6, 12 mg/kg, mefloquine 0.1, 0.3, 1 mg/kg i.p., 18 days, 2 hours after injection): dose-dependent
Effect on concentrations of amitriptyline in blood and brain ([3]; even for the highest doses of mefloquine): does not induce an increase
Mefloquine concentrations in plasma and brain at optimal in vivo potentiation ([3]; mice, FIG. 12): micromolar scale
Compound: O[C@H](c1cc(C(F)(F)F)nc2c(C(F)(F)F)cccc12)[C@@H]1CCCCN1 (relative stereo) [mefloquine, (R*, S*)-(±)-α-2-piperidinyl-2,8-bis (trifluoromethyl)-4-quinolinemethanol]
Paw withdrawal threshold (pressure) [1, 6]: did not present significant effect on both responses
Vocalization threshold (pressure) [1, 6]: did not present significant effect on both responses
Potentiation of amitriptyline anti-hyperalgesic effect [1]: significantly potentiated amitriptyline hyperalgesic profile from day 6 to day 14; also recorded: significantly potentiated amitriptyline hyperalgesic at day 14
Potentiation of amitriptyline anti-hyperalgesic effect [2]: significantly improved the anti-hyperalgesic effect of amitriptyline
Swimming time (mice subjected to FST): able to potentiate amitriptyline 12 mg/kg
Potentiation of amitriptyline antiallodynic effect ([4]; mefloquine 0.1, 0.33, 1 mg/kg i.p. with amitriptyline 6 mg/kg, 25 days): significantly potentiated amitriptyline 6 mg/kg
Antiallodynic effect of combination ([4]; mefloquine 0.1 and 0.33 mg/kg with amitriptyline 6 mg/kg): antiallodynic effect similar to amitriptyline 12 mg/kg

Compound: O=C(O)c1cc(C(F)(F)F)nc2c(C(F)(F)F)cccc12 [2,8-bistrifluoromethyl-4-quinoline carboxylic acid]
Time to maximum plasma concentrations ([5]; in vivo): 2 weeks
Maximum plasma concentrations, higher than those of mefloquine ([5]; relative to mefloquine): about 50%

HC activity (ethidium bromide uptake) after LPS-induced opening (Cx43 hemichannels): reversed this effect
Degree of Cx43 hemichannel inhibition, MFA compared with mefloquine (Cx43 hemichannels): presented a higher inhibitor effect
Compound: Cc1ccc(Cl)c(Nc2ccccc2C(=O)O)c1Cl [MFA, meclofenamic acid]
Potentiation of amitriptyline anti-hyperalgesic effect [1]: did not present any improved effect of amitriptyline
Synergy with amitriptyline in vivo [4]: not observed

Compound: O=C(O)c1cccnc1Nc1cccc(C(F)(F)F)c1 [niflumic acid]
Synergy with amitriptyline in vivo [4]: not observed

Compound: hydroxymefloquine
Presence as metabolite ([5]; in vivo): minute quantities only
